Assay results: patent US9878999B2, “Proteasome chymotrypsin-like inhibition using PI-1833 analogs” (H. Lee Moffitt Cancer Center and Research Institute, Inc., priority 2011, dated 2018)
Where “and” joins values, the source holds several entries; their conditions need not be identical. Equal entries are not always repeated. Where two headings read alike, the source gives them in different places. One block for each compound: values may come before it.

Target: CT-L activity of purified 20S proteasome (Homo sapiens, UniProt P20618+P28074)
Assay: in vitro CT-L activity of purified 20S proteasome
Type: biochemical
Details: for Chymotrypsin-like activity, % @ 10 μM: Table 2, @ 10 μM
[1] = Table 5, read-out: IC50 (μM) Chymotrypsin-like
[2] = Table 5, @ 10 μM, read-out: Screening Results (% Inhibition @ 10 μM) Chymotrypsin-like
[3] = Table 1, read-out: IC50 (μM) Chymotrypsin-like activity
[4] = read-out: % inhibition of CT-L @ 10 μM, @ 10 μM

Structure (SMILES): CC(C)CC(NC(=O)c1ccc(OCC(=O)N(Cc2nc(-c3ccccc3)no2)C(C)C)cc1)C(=O)O (stereo not shown) [drawing 146]
Screening Results (% Inhibition @ 10 μM) Chymotrypsin-like (Table 5, @ 10 μM): −174.75 ± 134.18 (n = 5) %

Structure (SMILES): CCCc1ccc(O[C@@H](C)C(=O)N(Cc2nc(-c3cccnc3)no2)C(C)C)cc1 (single isomer, unassigned) [drawing 176]
IC50 [1]: 0.075 µM

Structure (SMILES): CC(C)N(Cc1nc(-c2cccnc2)no1)C(=O)COc1ccc(O)cc1 [drawing 155]
inhibition at 10 µM [2]: 78.4 ± 6.33% | IC50 [1]: 0.98 ± 0.5 µM

Structure (SMILES): CCc1ccc(OCC(=O)N(Cc2nc(-c3ccccc3)no2)C(C)C)cc1 [drawing 134]
IC50 [1]: 0.267 ± 0.05 µM

Structure (SMILES): Cc1ccc(OCC(=O)N(Cc2nc(-c3ccccc3)no2)C(C)C)cc1 [drawing 139]
IC50 [1]: 0.22 ± 0.084 µM

Structure (SMILES): Cc1ccc(OCC(=O)N(Cc2coc(-c3ccccc3)n2)C(C)C)cc1
IC50 [1]: 0.14 ± 0.003 µM

Structure (SMILES): Cc1ccc(OCC(=O)N(C)Cc2nc(-c3ccc(C)cc3)no2)cc1 [drawing 122]
IC50 [1]: 29.9 ± 3.9 µM

Structure (SMILES): CC(C)N(Cc1nc(-c2ccccc2)no1)C(=O)COc1ccc(-c2ccccc2)cc1 [drawing 132]
inhibition at 10 µM [2]: < 70%

Structure (SMILES): CCCc1ccc(OCC(=O)N(Cc2nc(-c3cnccn3)no2)C(C)C)cc1 [drawing 167]
IC50 [1]: 0.105 ± 0.031 µM

Structure (SMILES): CC(C)N(Cc1nc(-c2ccccc2)no1)C(=O)COc1ccc(Cl)cc1 [drawing 121]
IC50 [1]: 0.51 ± 0.16 µM

Structure (SMILES): CC(C)N(Cc1nc(-c2ccccc2)no1)C(=O)CCc1ccc(C(F)(F)F)cc1 [drawing 183]
IC50 (Table 9, read-out: IC50 (μM) Chymotrypsin-like): 15.7 µM

Structure (SMILES): CC(C)N(Cc1nc(-c2ccccc2)no1)C(=O)COc1ccc(C(F)(F)F)cc1 [drawing 116]
IC50 [1]: 0.43 ± 0.12 µM

Structure (SMILES): CCCCc1ccc(OCC(=O)N(Cc2nc(-c3cnccn3)no2)C(C)C)cc1 [drawing 166]
IC50 [1]: 0.107 ± 0.013 µM

Structure (SMILES): CC(C)N(Cc1nc(-c2cccnc2)no1)C(=O)COc1ccccc1 [drawing 161]
IC50 [1]: 3.12 ± 1.11 µM

Structure (SMILES): CCc1ccc(OCC(=O)N(Cc2nc(-c3cccnc3)no2)C(C)C)cc1 [drawing 145]
IC50 [1]: 0.099 ± 0.032 µM

Structure (SMILES): Cc1ccc(CNC(=O)N(Cc2nc(-c3ccccc3)no2)C(C)C)cc1 [compound 43]
CT-L inhibitory activity, in words: loss of CT-L activity

Structure (SMILES): CC(C)N(Cc1nc(-c2ccccc2)no1)C(=O)COc1ccc(C(=O)OC(C)(C)C)cc1 [drawing 141]
inhibition at 10 µM [2]: -62 ± 26.3%

Structure (SMILES): CCCCc1ccc(OCC(=O)N(Cc2nc(-c3cccnc3)no2)C(C)C)cc1 [drawing 159]
IC50 [1]: 0.039 ± 0.011 µM

Structure (SMILES): Cc1ccc(OCC(=O)N(Cc2nc(-c3ccccc3)no2)C(C)C)cc1 [drawing 117]
IC50 [1]: 0.31 µM

Structure (SMILES): Cc1ccc(NCC(=O)N(Cc2nc(-c3ccccc3)no2)C(C)C)cc1 [SO2-090, N-Isopropyl-N-((3-phenyl-1,2,4-oxadiazol-5-yl)methyl)-2-(p-tolylamino)acetamide]
IC50 (read-out: IC50, in vitro CT-L): 5.67 µM

Structure (SMILES): CCCCCc1ccc(OCC(=O)N(Cc2nc(-c3cccnc3)no2)C(C)C)cc1 [drawing 164]
IC50 [1]: 0.121 ± 0.04 µM

Structure (SMILES): CC(C)N(Cc1nc(-c2ccccc2)no1)C(=O)CCc1ccc(C(F)(F)F)cc1 [SO2-027, N-Isopropyl-N-((3-phenyl-1,2,4-oxadiazol-5-yl)methyl)-3-(4-(trifluoromethyl)phenyl)propanamide]
IC50 (Table 10, read-out: IC50 (μM) CT-L): 15.7 µM | IC50 (read-out: IC50, in vitro CT-L): 15 µM

Structure (SMILES): Cc1ccc(OC(C)C(=O)N(Cc2nc(-c3cccnc3)no2)C(C)C)cc1 (stereo not shown)
inhibition at 10 µM [2]: 92.9 ± 1.7% | IC50 [1]: 0.38 ± 0.099 µM

Structure (SMILES): Cc1ccc(OCC(=O)N(Cc2nc(-c3ccc(C)cc3)no2)C(C)C)cc1 [drawing 108]
Screening Results (% Inhibition @ 10 μM) Chymotrypsin-like (Table 5, @ 10 μM): 74% and 67% and 71% | inhibition at 10 µM [2]: 73% | IC50 [1]: 0.65 ± 0.38 µM

Structure (SMILES): CC(C)N(Cc1nc(-c2ccc(Cl)cc2)no1)C(=O)COc1ccc(C(F)(F)F)cc1 [drawing 114]
IC50 [1]: 0.58 µM and 0.857 µM

Structure (SMILES): CCN(Cc1nc(-c2ccc(C)cc2)no1)C(=O)COc1ccc(C)cc1 [drawing 128]
IC50 [1]: 8.98 ± 5.21 µM

Structure (SMILES): Cc1ccc(OCC(=O)N(Cc2nc(-c3ccccn3)no2)C(C)C)cc1 [drawing 138]
IC50 [1]: 3.75 ± 1.47 µM

Structure (SMILES): Cc1ccc(-c2noc(CN(C(=O)COc3ccccc3)C(C)C)n2)cc1 [drawing 124]
IC50 [1]: 8.47 ± 0.59 µM

Structure (SMILES): CC(C)Cc1ccc(OCC(=O)N(Cc2nc(-c3cccnc3)no2)C(C)C)cc1 [drawing 173]
IC50 [1]: 0.14 ± 0.052 µM

Structure (SMILES): Cc1ccc(OCC(=O)N(Cc2nc(-c3ccc(C(F)(F)F)cc3)no2)C(C)C)cc1 [drawing 112]
IC50 [1]: 0.97 ± 0.15 µM

Structure (SMILES): CCCc1ccc(OCC(=O)N(Cc2nc(-c3cncnc3)no2)C(C)C)cc1 [drawing 168]
IC50 [1]: 0.032 ± 0.003 µM

Structure (SMILES): Cc1ccc(O[C@@H](C)C(=O)N(Cc2nc(-c3cccnc3)no2)C(C)C)cc1 [drawing 162]
IC50 [1]: 0.214 ± 0.053 µM

Structure (SMILES): CC(C)c1ccc(OCC(=O)N(Cc2nc(-c3ccc(Cl)cc3)no2)C(C)C)cc1
IC50 [1]: 5.13 ± 0.09 µM

Structure (SMILES): O=C(COc1ccc(C(F)(F)F)cc1)N(Cc1nc(-c2ccccc2)no1)C1CC1 [drawing 135]
Screening Results (% Inhibition @ 10 μM) Chymotrypsin-like (Table 5, @ 10 μM): 35.35% and 33.80% | inhibition at 10 µM [2]: 27.3% | IC50 [1]: 6.37 µM

More lines, now with the values ahead:

IC50 (read-out: IC50, in vitro CT-L): 0.214 µM
Structure (SMILES): Cc1ccc(O[C@@H](C)C(=O)N(Cc2nc(-c3cccnc3)no2)C(C)C)cc1 [16b, (S)—N-Isopropyl-N-((3-(pyridine-3-yl)-1,2,4-oxadiazol-5-yl)methyl)-2-(p-tolyloxy)propanamide]

CT-L inhibitory activity, in words: failed to improve the CT-L activity | IC50 [3]: 0.14 ± 0.052 µM
Structure (SMILES): CC(C)Cc1ccc(OCC(=O)N(Cc2nc(-c3cccnc3)no2)C(C)C)cc1 [11ak, N-Isopropyl-2-(4-isobutylphenoxy)-N-((3-(pyridin-3-yl)-1,2,4-oxadiazol-5-yl)methyl)acetamide]

IC50 (read-out: IC50, in vitro CT-L): 0.289 µM
Structure (SMILES): CCCc1ccc(OC(C)C(=O)N(Cc2nc(-c3cccnc3)no2)C(C)C)cc1 (racemic) [16d, N-Isopropyl-2-(4-propylphenoxy)-N-((3-(pyridine-3-yl)-1,2,4-oxadiazol-5-yl)methyl)propanamide]

Chymotrypsin-like activity, % @ 10 μM: −8.36 ± 19.03%
Structure (SMILES): Cc1ccc(OCC(=O)N(Cc2nc(-c3ccc(C)cc3)no2)C2CC2)cc1 [12f, N-Cyclopropyl-N-((3-p-tolyl-1,2,4-oxadiazol-5-yl)methyl)-2-(p-tolyloxy)acetamide]

IC50 (read-out: IC50, in vitro CT-L): 3.12 ± 1.11 µM
Structure (SMILES): CC(C)N(Cc1nc(-c2cccnc2)no1)C(=O)COc1ccccc1 [11ac, N-Isopropyl-2-phenoxy-N-((3-(pyridine-3-yl)-1,2,4-oxadiazol-5-yl)methyl)acetamide]

IC50 [3]: > 10 µM | inhibition at 10 µM [4]: < 70%
Structure (SMILES): CC(C)N(Cc1nc(-c2ccccc2)no1)C(=O)COc1ccc2cc(Br)ccc2c1 [11r, 2-(6-Bromonaphthalen-2-yloxy)-N-isopropyl-N-((3-phenyl-1,2,4-oxadiazol-5-yl)methyl)acetamide]

IC50 (read-out: IC50, in vitro CT-L): 0.37 ± 0.04 µM
Structure (SMILES): Cc1ccc(OCC(=O)N(Cc2nc(-c3ccncc3)no2)C(C)C)cc1 [11y, N-Isopropyl-N-((3-(pyridin-4-yl)-1,2,4-oxadizaol-5-yl)methyl)-2-(p-tolyloxy)acetamide]

Chymotrypsin-like activity, % @ 10 μM: −62% @10 μM.
Structure (SMILES): Cc1ccc(OCC(=O)NCc2nc(-c3ccc(C)cc3)no2)cc1 [12d, N-((3-p-tolyl-1,2,4-oxadiazol-5-yl)methyl)-2-(p-tolyloxy)acetamide]

IC50 [3]: 0.45 ± 0.15 µM | IC50 (read-out: IC50, in vitro CT-L): ~1 µM
Structure (SMILES): Cc1ccc(OCC(=O)N(Cc2nc(-c3ccc(Cl)cc3)no2)C(C)C)cc1 [11i, N-((3-(4-chlorophenyl)-1,2,4-oxadiazol-5-yl)methyl)-N-isopropyl-2-(p-tolyloxy)acetamide]

IC50 (Table 2, read-out: IC50 (μM) Chymotrypsin-like activity): 29.9 ± 3.9 µM
Structure (SMILES): Cc1ccc(OCC(=O)N(C)Cc2nc(-c3ccc(C)cc3)no2)cc1 [12c, N-Methyl-N-((3-p-tolyl-1,2,4-oxadiazol-5-yl)methyl)-2-(p-tolyloxy)acetamide]

IC50 [3]: > 10 µM | inhibition at 10 µM [4]: < 70%
Structure (SMILES): CC(C)N(Cc1nc(-c2ccccc2)no1)C(=O)COc1ccc(-c2ccccc2)cc1 [11q, 2-(Biphenyl-4-yloxy)-N-isopropyl-N-((3-phenyl-1,2,4-oxadiazol-5-yl)methyl)acetamide]

IC50 [3]: 0.857 ± 0.35 µM | IC50 (read-out: IC50, in vitro CT-L): ~1 µM
Structure (SMILES): CC(C)N(Cc1nc(-c2ccc(Cl)cc2)no1)C(=O)COc1ccc(C(F)(F)F)cc1 [11d, N-((3-(4-chlorophenyl)-1,2,4-oxadiazol-5-yl)methyl)-N-isopropyl-2-(4-(trifluoromethyl)phenoxy)acetamide]

Chymotrypsin-like activity, % @ 10 μM: −108.42 ± 118.76%
Structure (SMILES): Cc1ccc(OCC(=O)N(Cc2nc(-c3ccc(C)cc3)no2)C(C)(C)C)cc1 [12e]

CT-L inhibitory activity, in words: loss of in vitro activity | IC50 [3]: > 10 µM
Structure (SMILES): Cc1cccc(OCC(=O)N(Cc2nc(-c3ccccc3)no2)C(C)C)c1 [11o, N-isopropyl-N-((3-phenyl-1,2,4-oxadiazol-5-yl)methyl)-2-(m-tolyloxy)acetamide]

IC50 [3]: 0.107 ± 0.013 µM | fold loss of CT-L activity (compared to 11ad or 11ae): 3 fold
Structure (SMILES): CCCCc1ccc(OCC(=O)N(Cc2nc(-c3cnccn3)no2)C(C)C)cc1 [11an]

IC50 [3]: 1.12 ± 0.33 µM | IC50 (read-out: IC50, in vitro CT-L): ~1 µM
Structure (SMILES): Cc1ccc(-c2noc(CN(C(=O)COc3ccc(Cl)cc3)C(C)C)n2)cc1 [11e, 2-(4-Chlorophenoxy)-N-isopropyl-N-((3-p-tolyl-1,2,4-oxadiazol-5-yl)methyl)acetamide]

IC50 [3]: 0.97 ± 0.15 µM | IC50 (read-out: IC50, in vitro CT-L): ~1 µM
Structure (SMILES): Cc1ccc(OCC(=O)N(Cc2nc(-c3ccc(C(F)(F)F)cc3)no2)C(C)C)cc1 [11n, N-Isopropyl-2-(p-tolyloxy)-N-((3-(4-(trifluoromethyl)phenyl)-1,2,4-oxadiazol-5-yl)methyl)acetamide]

IC50 [3]: 10.1 ± 4.52 µM | IC50 (read-out: IC50, in vitro CT-L): 10 µM
Structure (SMILES): CC(C)N(Cc1nc(-c2ccccc2)no1)C(=O)COc1ccc(O)cc1 [11v, 2-(4-hydroxyphenoxy)-N-isopropyl-N-((3-phenyl-1,2,4-oxadiazol-5-yl)methyl)acetamide]

IC50 (read-out: IC50, in vitro CT-L): 1.07 µM
Structure (SMILES): CC(C)N(Cc1nc(-c2ccc(Cl)cc2)no1)C(=O)COc1ccc(Cl)cc1 [11g, 2-(4-Chlorophenoxy)-N-((3-(4-chlorophenyl)-1,2,4-oxadiazol-5-yl)methyl)-N-isopropylacetamide]

IC50 [3]: 0.267 ± 0.05 µM | fold improved CT-L activity (compared to the hit 1 (PI-1833)): 2 fold | IC50 (read-out: IC50, in vitro CT-L): 0.26 ± 0.05 µM
Structure (SMILES): CCc1ccc(OCC(=O)N(Cc2nc(-c3ccccc3)no2)C(C)C)cc1 [11aa, 2-(4-Ethylphenoxy)-N-isopropyl-N-((3-phenyl-1,2,4-oxadiazol-5-yl)methyl)acetamide]
